The IC50 is the midpoint of a concentration-inhibition curve. A low value points to greater potency.

The test system of data set [1] is HaCaT. The experiment in a line: Antiproliferative activity against human HaCaT cells. The class given is cell-based.
Data set [2] deals with HaCaT. The experiment in a line: Cytotoxicity against human HaCaT cells assessed as LDH release at 2 uM. It is filed as cell-based. On the technique in general: LDH in the medium is a marker of cell lysis.

In data set [1], `O=C1C=C(O)c2cccc(O)c2C1=O` showed an IC50 of more than 10 µM.

For `CC(O)c1cc2c(o1)C(=O)c1ccccc1C2=O` (configuration not stated), the IC50 in data set [1] was 3.7 µM. Compound `CC/C=C/C1=C(O)C(=O)c2c(O)cccc2C1=O` returned an IC50 in data set [1] of more than 10 µM.

Turning to `CCc1cc2c(o1)C(=O)c1c(O)cccc1C2=O`, half-maximal inhibition in data set [1] (IC50) was put at 3 µM.

In the case of `CC(=O)c1cc2c(o1)C(=O)c1c(O)cccc1C2=O`, inhibition in data set [1] was half-maximal at 0.3 µM (IC50). In addition, the Activity in data set [2] amounted to 346 mU. `CCc1cc2c(o1)-c1cccc(O)c1C(=O)C2=O` showed an IC50 in data set [1] of 0.9 µM. For the same compound, the Activity in data set [2] is on record as 235 mU. `CC1(C)CCC2=C(O1)C(=O)c1ccccc1C2=O` [ALPHA-LAPACHONE] displayed an IC50 in data set [1] of 10 µM.

As to `O=C1c2c(O)cccc2Cc2cccc(O)c21` [ANTHRALIN], the Activity in data set [2] was 294 mU. In turn, `CC1(C)C=CC2=C(O1)C(=O)c1ccccc1C2=O` [DEHYDRO-ALPHA-LAPACHONE] yielded an IC50 in data set [1] of more than 10 µM. The same measure, in the same setting: with `C=C(C)C1CC2=C(O1)C(=O)c1ccccc1C2=O` (stereo not drawn) [DEHYDROISO-ALPHA-LAPACHONE] the figure was 4.3 µM; with `CC(C)=CCC1=C(O)C(=O)c2ccccc2C1=O` [LAPACHOL], more than 10 µM. With `CC1(C)CCC2=C(O1)c1ccccc1C(=O)C2=O` [LAPACHONE], in data set [1], it took 0.7 µM to reach half-maximal inhibition (IC50). In addition, the Activity in data set [2] is recorded as 329 mU. Taken in the same sequence, the figures for `CC(=O)c1cc2c(o1)C(=O)c1ccccc1C2=O` [NAPABUCASIN] were 0.5 µM and 331 mU.

For the origin of these results see ChEMBL document CHEMBL1144088, “Potential antipsoriatic agents: lapacho compounds as potent inhibitors of HaCaT cell growth” (J Nat Prod, 1999).
